# US8759073B2, “Method for effectively controlling harmful organisms in large-scale culture of microalgae” (ENN Science & Technology Development Co., Ltd., priority 2009, dated 2014)
# System: Chlorococcum sp.
# Assay: Growth of cultured algae after treatment, 60 L glass plate reactor
# Procedure: pH of the normally cultured microalgae is adjusted into various ranges. The growth rate of the microalgae is measured and their appearance is observed under a microscope.
# Chlorococcum sp. (obtained from Qingdao Marine Institute) was cultured (pH 8.0-9.0 for the normal culture) in a 60 L glass plate reactor (manufactured by Longfang Jiangchuan plexiglass Co. Ltd., OP=10 cm) under a sunlight film (with a temperature of about 25 °C, a humidity of 60%-80%, and an illumination of 8000-20000 lux). Modified BG11 medium (see Table 3) was used. […] CO2 was aerated continuously. […] Then air was sufficiently aerated, and pH was raised to 7.0-8.0 in 4 hours.
# (§1) Chlorococcum sp. (obtained from Qingdao Marine Institute) was cultured in a 60 L glass plate reactor (manufactured by Longfang Jiangchuan plexiglass Co. Ltd., OP=10 cm) under a sunlight film (with a temperature of about 25 °C, a humidity of 60%-80%, and an illumination of 8000-20000 lux) (pH 8.0-9.0 for the normal culture). Modified BG11 medium (see Table 3) was used. […] Then CO2 was aerated and pH was adjusted to 7.0-8.0.
# Chlorococcum sp. (obtained from Qingdao Marine Institute) was cultured in a 60 L glass plate reactor (manufactured by Longfang Jiangchuan plexiglass Co. Ltd., OP=10 cm) under a sunlight film (with a temperature of about 25 °C, a humidity of 60%-80%, and an illumination of 8000-20000 lux) (pH 8.0-9.0 for the normal culture). Modified BG11 medium (see Table 3) was used. […] One hour later, CO2 was aerated to saturation (about pH 5.6) for 24 hour continuously. […] Then air was sufficiently aerated.
# as §1, with “air” for “CO2”, “sufficiently aerated.” for “aerated and pH was adjusted to 7.0-8.0.”
# as §1
# Chlorococcum sp. (obtained from Qingdao Marine Institute) was cultured in a 60 L glass plate reactor (manufactured by Longfang Jiangchuan plexiglass Co. Ltd., OP=10 cm) under a sunlight film (with a temperature of about 25 °C, a humidity of 60%-80%, and an illumination of 8000-20000 lux) (pH 8.0-9.0 for the normal culture). Modified BG11 medium (see Table 3) was used.
smiles,measurement,setting,value
"O=C=O [CO2, carbon dioxide]",growth of the algae,,rarely affected
same,time until algae started to grow after recovery of pH7.0 or above,pH 7,8 hours
same,time until algae resumed to grow after air aeration,pH 9,Eighteen
